In the supplement of paper PMC10307832:

Legend:
Assay in all cases: relative viability (nuclei count vs DMSO), 5 days (fraction); higher = more cells survive
[1] = compound: CCC1=CN=CN=C1N2CCN(CC2)CC3=NC4=C(N3)C=C(C=C4)C(F)(F)F + Cc1nc(NC(=O)N2CCC[C@H]2C(N)=O)sc1-c1ccnc(C(C)(C)C(F)(F)F)c1 [Alpelisib] (partner 2 µM)
Outline: (§1)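 Nuclei were stained with Hoechst during a one-step fixation (final 0.05% Triton X-100, 1% formaldehyde, 1 ug/ml Hoechst) carried out 5 days after dosing, then counted on 4× images. The cells, lung cancer lines in 1536-well plates, had been dosed by pin tool the day after seeding with one drug alone or a fixed anchor-drug dose plus five library-drug doses (not always all listed) in √10 steps. Relative viability is the nuclei count in treated wells divided by that in vehicle wells, and each value is the median of duplicate plates.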

[2] = compound: CCn1c(-c2nonc2N)nc2cnc(Oc3cccc(NC(=O)c4ccc(OCCN5CCOCC5)cc4)c3)cc21 + CC(=O)Nc1cccc(-n2c(=O)n(C3CC3)c(=O)c3c(Nc4ccc(I)cc4F)n(C)c(=O)c(C)c32)c1 [Trametinib] (partner 0.02 µM)
Outline: as §1

[3] = compound: CCn1c(-c2nonc2N)nc2cnc(Oc3cccc(NC(=O)c4ccc(OCCN5CCOCC5)cc4)c3)cc21 + O=C(CCCCCCC(=O)Nc1ccccc1)NO [Vorinostat] (partner 1 µM)
Outline: as §1

Mirin + Dasatinib = compound: N=C1NC(=O)/C(=C/c2ccc(O)cc2)S1 [Mirin] + Cc1nc(Nc2ncc(C(=O)Nc3c(C)cccc3Cl)s2)cc(N2CCN(CCO)CC2)n1 [Dasatinib] (partner 0.075 µM)
Outline: as §1

Cell Line | relative viability ([1]; first compound 0.04 µM) | relative viability ([1]; first compound 0.1265 µM) | relative viability ([1]; first compound 0.4 µM) | relative viability ([1]; first compound 1.265 µM) | relative viability ([1]; first compound 4 µM) | relative viability ([2]; first compound 0.04 µM) | relative viability ([2]; first compound 0.1265 µM) | relative viability ([2]; first compound 0.4 µM) | relative viability ([2]; first compound 1.265 µM) | relative viability ([2]; first compound 4 µM) | relative viability ([3]; first compound 0.04 µM) | relative viability ([3]; first compound 0.1265 µM) | relative viability ([3]; first compound 0.4 µM) | relative viability ([3]; first compound 1.265 µM) | relative viability ([3]; first compound 4 µM) | relative viability (Mirin + Dasatinib; first compound 0.25 µM) | relative viability (Mirin + Dasatinib; first compound 0.7906 µM) | relative viability (Mirin + Dasatinib; first compound 2.5 µM) | relative viability (Mirin + Dasatinib; first compound 7.906 µM) | relative viability (Mirin + Dasatinib; first compound 25 µM)
NCI-H596 | 0.573 | 0.431 | 0.443 | 0.459 | 0.508 | 0.797 | 0.804 | 0.825 | 0.555 | 0.657 | 0.598 | 0.531 | 0.617 | 0.468 | 0.604 | 0.643 | 0.596 | 0.559 | 0.525 | 0.569
LU99A | 0.524 | 0.527 | 0.53 | 0.568 | 0.585 | 0.569 | 0.595 | 0.567 | 0.584 | 0.497 | 0.583 | 0.376 | 0.3 | 0.427 | 0.384 | 0.574 | 0.564 | 0.509 | 0.423 | 0.531
NCI-H1666 | 0.877 | 0.913 | 0.903 | 0.851 | 0.95 | 0.95 | 1.09 | 0.851 | 0.582 | 0.528 | 1.13 | 1.05 | 1.12 | 1.05 | 1.03 | 0.93 | 0.807 | 0.846 | 0.709 | 0.681
NCI-H2170 | 0.841 | 0.753 | 0.762 | 0.713 | 0.685 | 0.885 | 0.941 | 0.96 | 0.926 | 0.974 | 0.797 | 0.8 | 0.763 | 0.538 | 0.484 | 0.551 | 0.498 | 0.519 | 0.489 | 0.468
NCI-H522 | – | – | – | – | – | 0.739 | 0.705 | 0.652 | 0.629 | 0.751 | 1.19 | 0.697 | 0.783 | 0.742 | 0.539 | 0.814 | 0.869 | 0.845 | 0.652 | 0.648
LCLC-97TM1 | 0.239 | 0.266 | 0.246 | 0.314 | 0.192 | 0.257 | 0.192 | – | 0.197 | 0.19 | 1.12 | 0.856 | – | 0.705 | 0.662 | 0.773 | 0.816 | 0.868 | 0.737 | 0.765
NCI-H1299 | 1.09 | 1.07 | 1.04 | 1.03 | 1.04 | – | – | – | – | – | – | – | – | – | – | – | – | – | – | –
Calu-6 | 0.891 | 0.923 | 0.86 | 0.822 | 0.86 | – | – | – | – | – | – | – | – | – | – | – | – | – | – | –
NCI-H1703 | 0.462 | 0.401 | 0.358 | 0.25 | 0.535 | – | – | – | – | – | – | – | – | – | – | – | – | – | – | –
